The values that follow come from patent publication US7691869B2, “Pyrrolotriazolopyrimidine derivatives, pharmaceutical compositions containing them and methods of treating conditions and diseases mediated by the adenosine A2A receptor activity” (King Pharmaceuticals Research and Development, Inc., priority 2008, dated 2010).

The target of assay [1] is T1, human adenosine A2A receptor (Homo sapiens, UniProt P29274).
T1 construct: expressed in transfected cells; host or cells: CHO cells (membrane preparation)
T1 sequence (P29274 whole entry): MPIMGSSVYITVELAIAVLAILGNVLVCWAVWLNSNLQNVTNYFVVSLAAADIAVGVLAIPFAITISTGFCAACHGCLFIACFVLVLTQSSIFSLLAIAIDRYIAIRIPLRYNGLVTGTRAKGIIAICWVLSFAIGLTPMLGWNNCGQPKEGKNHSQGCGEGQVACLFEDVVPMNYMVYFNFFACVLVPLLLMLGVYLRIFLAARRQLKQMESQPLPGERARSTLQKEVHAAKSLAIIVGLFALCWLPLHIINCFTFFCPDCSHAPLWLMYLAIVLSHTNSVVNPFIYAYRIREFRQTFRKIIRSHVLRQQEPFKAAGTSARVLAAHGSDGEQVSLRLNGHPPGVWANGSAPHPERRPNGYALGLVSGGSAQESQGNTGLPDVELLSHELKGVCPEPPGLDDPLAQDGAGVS
The assay is described as follows: Human cloned A2A adenosine receptor binding assay ([3H]ZM241385 displacement, CHO membranes). The note with it: [3H]ZM241385, CHO cells transfected with human recombinant A2A receptors. The protocol: CHO Membranes Preparation
The human adenosine receptors have been transfected in CHO cells according with the method previously described by Klotz et al. (Naunyn-Schmied. Arch Pharm. 1998, 357: 1-9). Briefly, the cells are grown adherently and maintained in Dulbecco's Modified Eagles Medium with nutrient mixture F12 (DMEM/F12) without nucleosides, containing 10% fetal calf serum, penicillin (100 U/mL), streptomycin (100 μg/mL), L-glutamine (2 mM) and Geneticin (G418, 0.2 mg/ml) at 37° C. in 5% CO2/95% air. For membrane preparation the culture medium is removed and the cells are ished with phosphate-buffered saline and scraped off T75 flasks in ice-cold hypo tonic buffer (5 mM Tris HCl, 1 mM EDTA, pH 7.4). The cell suspension is homogenized with Polytron, the homogenate is spun for 10 min at 1000×g and the supernatant is then centrifuged for 30 min at 100,000×g. […]
All new synthesized compounds have been tested to evaluate their affinity to human A1, A2A, A2B and A3 adenosine receptors. […] Non-specific binding is determined in the presence of 10 μM of CHA and this is always ≦10% of the total binding. […] Non-specific binding is determined in the presence of 1 μM ZM 241385 and is about 20% of total binding. […] Bound and free radioactivity are separated by filtering the assay mixture through Whatman GF/B glass fiber filters using a Micro-Mate 196 cell harvester (Packard Instrument Co.). The filter bound radioactivity is counted on a Top Count (efficiency 57%) with Micro-Scint 20.
The protein concentration is determined according to a Bio-Rad method (Bradford, Anal Biochem. 1976, 72: 248-254) with bovine albumin as a standard reference. Inhibitory binding constant, Ki, values are calculated from those of IC50 according to Cheng & Prusoff equation (Biochem. Pharmacol. 1973, 22: 3099-3108): Ki=IC50/(1+[C*]/KD*) where [C*] is the concentration of the radioligand and KD* its dissociation constant. […] Data are expressed as geometric mean with 95% confidence limits in parentheses.

The test system of a further assay is 6-OHDA lesion rats. The experiment in a line: 6-OHDA lesion of the middle forebrain bundle in rats, Protocol B (apomorphine-induced rotation). Type of assay: in vivo, rat. The note with it: 30 mg/kg single i.p. dose; threshold dose of apomorphine 0.02 mg/kg i.p.; significant increase, p≦0.05; FIG. 1. The protocol: Adult male Sprague-Dowley rats (Harlan UK ltd., Bicester, Oxon, UK), weighing 255±15 g, are used in all experiments. The rats are housed in groups of up to 5 per cage, and the animals are fed an expanded rodent diet of RM1(E) SQC (Special Diets Services, Witham, UK) ab libitum, and allowed free access to water, under controlled temperature and 12 hour light-dark cycle.
The test compounds are formulated for dosing by initially wet grinding a known amount in approximately 10% of the final volume of vehicle, i.e., propylene glycol/polyethylene glycol (PEG400)/glucose (D5W)-15/15/70 v %, in a mortal and pestle. Once suitably wetted, approximately 30% of the remaining vehicle is added, stirred for up to 10 min, and then sonicated for approximately 5 min. This step is repeated twice, using remaining vehicle to provide even suspensions of 0.6, 2 and 6 mg/mL. No correction factor is applied. All test substance formulations are clear to light tan colored suspensions, stored at RT and protected from light until dosing. The dose volume for the test compounds is 5 mL/kg to provide dosages of 3, 10 and 30 mg/kg, respectively.
Apomorphine hydrochloride (HCl) hemihydrate (Sigma, UK) is formulated for dosing by dissolving a known amount in 0.9% w/v sodium chloride (Baxter Healthcare Ltd., UK) to produce a clear, colorless solution of 0.02 mg/mL. […]

The structures appear in SMILES notation.

As to `Nc1nc2c(ccn2CCN2CCN(C(=O)c3ccc(F)cc3F)CC2)c2nc(-c3ccco3)nn12` [Example 4, (4-(2-(5-Amino-2-(furan-2-yl)-7H-pyrrolo[3,2-e][1,2,4]triazolo[1,5-c]pyrimidin-7-yl)ethyl)piperazin-1-yl)(2,4-difluorophenyl)methanone], in assay [1], the Ki (commonly a measure of affinity in units of concentration, obtained from inhibition or displacement) was approximately 1 nM.

On to `CN(CCN(C)c1ccc(F)cc1F)CCn1ccc2c1nc(N)n1nc(-c3ccco3)nc21` [Example 29, N^1-(2-(5-Amino-2-(furan-2-yl)-7H-pyrrolo[3,2-e][1,2,4]triazolo[1,5-c]pyrimidin-7-yl)ethyl)-N^2-(2,4-difluorophenyl)-N^1,N^2-dimethylethane-1,2-diamine], for which, in assay [1], the Ki was approximately 28 nM.

For the compound `Nc1nc2c(ccn2CCN2CCN(c3ccc(F)cc3F)CC2)c2nc(-c3ccco3)nn12` [Example 30, 7-(2-(4-(2,4-Difluorophenyl)piperazin-1-yl)ethyl)-2-(furan-2-yl)-7H-pyrrolo[3,2-e][1,2,4]triazolo[1,5-c]pyrimidin-5-amine], in assay [1], the Ki was approximately 5 nM. In the assay with 6-OHDA lesion rats, the “number of contralateral rotations” value is reported as 228±38.
